Source: PMC6108829 (Environmental Health Perspectives, 2018)
Where “and” joins values, the source holds several entries; their conditions need not be identical. Equal entries are not always repeated. Where two headings read alike, the source gives them in different places. Marks after values point to notes of the source that are not given here.

Experiments:
[1] = Margin of exposure (MOE = EC50/Cmax) back-of-the-envelope calculation; parameters: species or system human
[2] = test system: human breast-cancer cell lines; parameters: method as in Walsh et al. (2005); conditions: ref Walsh et al. (2005), read-out: EC50 for an increase of calcium ion concentration; cited from earlier work
[3] = PBPK model parametrization and calibration with biomonitoring data; parameters: species or system human; conditions: basic BPA model
Protocol: It consists of the compartments titled serum, liver, fat, skin, gonads, brain, “richly perfused tissue,” “slowly perfused tissue”, and two single-compartment submodules for BPA-g and BPA-s in serum (see Figure 2). In the compartment titled “richly perfused tissue,” compartments were lumped with a perfusion greater than 0.1mL/min/g tissue (heart, kidneys, small and large intestine, pancreas, spleen, and stomach), and in the compartment titled “slowly perfused tissue,” compartments were lumped with a perfusion smaller than 0.1mL/min/g tissue (muscle and skeleton) ([Edginton et al. 2006]; [ICRP 2002], see Table S1 for the aggregated parameters). […] Fixing the scaling error caused the aforementioned discrepancy, and we had to review and readjust the model parameters to the biomonitoring data.
In a first step to readjust and further develop the PBPK model, we collected all studies that investigated the metabolism parameters used in the model and gathered data from different studies that measured the same metabolism routes (see Table S2). […] For this purpose, we calculated the mean relative deviation (MRD) and average fold error (AFE) to assess precision and bias of the model predictions using Equations 1 and 2 ([Sheiner and Beal 1981]), as done previously ([Ito and Houston 2005]; [Vogt 2014]; [Yang et al. 2015]). […]

[4] = ref Csanády et al. 2002; cited from earlier work
liver [5] = conditions: cited from earlier work
[6] = in vivo; cited from earlier work
[7] = cited from earlier work
[8] = cited from earlier work; remark: listed apart in the source
liver [9] = conditions: ref Kurebayashi et al. (2010), cited from earlier work
[10] = ref Schönfelder et al. (2002); cited from earlier work
small intestine = conditions: cited from earlier work
[11] = determined experimentally, ref Doerge et al. (2011), cited from earlier work
[12] = cited from earlier work; remark: listed apart in the source
[13] = EC50 (Kitamura et al. 2005)/highest Cmax of basic PBPK model (Table 9)
[14] = basic PBPK model, ref Yang et al. (2015)

## CC(C)(c1ccc(O)cc1)c1ccc(O)cc1 [BPA, bisphenol A]
[1]; [13]
  MOE in gonads: 4,670
  MOE in serum: 12,000
[1]; EC50 of Walsh et al. (2005), Cmax P95/P95
  MOE in serum of females: 1.25
[1]; EC50 of Walsh et al. (2005), worst-case accumulation in the fetus
  MOE in fetal serum: 0.179
[2]
  EC50: 0.1 nM
[3]
  vmax of hepatic sulfation, times lower than that of hepatic glucuronidation: about 60 times
[4]
  fu (unbound fraction): 0.06
Liver [5]; arithmetic mean of female and male kinetics, ref Elsby et al. (2001)
  Hepatic glucuronidation vmax ±SD: 333 ± 21 nmol/h/mg microsomal protein
Liver [5]; arithmetic mean of female and male kinetics, ref Kuester and Sipes (2007)
  Hepatic glucuronidation vmax ±SD: 85.2 ± 31.4 nmol/h/mg microsomal protein
Liver [5]; arithmetic mean of female and male kinetics, ref Mazur et al. (2010)
  Hepatic glucuronidation vmax ±SD: 190 ± 16.9 nmol/h/mg microsomal protein
Liver [5]; range of published values, ref Coughlin et al. (2012), Kurebayashi et al. (2010), Trdan Lušin et al. (2012), Elsby et al. (2001), Kuester and Sipes (2007), Mazur et al. (2010), Street et al. (2017)
  Hepatic glucuronidation vmax range: 1,270–16,300^c nmol/h/g liver
Liver [5]; read-out: Hepatic glucuronidation Km ±SD, arithmetic mean of female and male kinetics, ref Elsby et al. (2001)
  Km: 71.9 µM
Liver [5]; read-out: Hepatic glucuronidation Km ±SD, arithmetic mean of female and male kinetics, ref Kuester and Sipes (2007)
  Km: 8.5 µM
Liver [5]; read-out: Hepatic glucuronidation Km ±SD, arithmetic mean of female and male kinetics, ref Mazur et al. (2010)
  Km: 4.25 µM
Liver [5]; read-out: Hepatic glucuronidation Km ±SD, ref Street et al. (2017)
  Km: 23 µM
Liver [5]; read-out: Hepatic glucuronidation Km ±SD, ref Trdan Lušin et al. (2012)
  Km: 8.9 µM
Liver [5]; read-out: Hepatic glucuronidation Km, n=1, ref Kurebayashi et al. (2010)
  Km: 5.3 µM
Liver [5]; read-out: Hepatic glucuronidation Km, used in basic model, ref Coughlin et al. (2012)
  Km: 45.8 µM
Liver [5]; ref Coughlin et al. (2012)
  Hepatic glucuronidation vmax - used in basic model: 9,040^a nmol/h/g liver
  Hepatic glucuronidation vmax ±SD: 283 ± 18 nmol/h/mg microsomal protein
Liver [5]; ref Kurebayashi et al. (2010)
  Hepatic glucuronidation vmax: 39.8 nmol/h/mg microsomal protein
Liver [5]; ref Street et al. (2017)
  Hepatic glucuronidation vmax ±SD: 270 ± 60 nmol/h/mg microsomal protein
Liver [5]; ref Trdan Lušin et al. (2012)
  Hepatic glucuronidation vmax ±SD: 510 ± 18 nmol/h/mg microsomal protein
[6]
  AUC, mean (range), measured: 15.5 (0.986–23.2) nM*h for 1.5 h
  Cmax: 16.5 nM
[7]; basic PBPK model, ref Kortejärvi et al. (2007)
  Oral uptake from small intestine to liver: 2.10^a 1/h/kg BW^−0.25
[7]; [14]
  EHR as glucuronide: 0.20^f 1/h/kg BW^−0.25
  EHR unconjugated: 0.20^f 1/h/kg BW^−0.25
  Fraction of glucuronide in liver taken up directly into serum (no EHR): 0.9^f
  Urinary excretion glucuronide: 0.35^f 1/h/kg BW^0.75
[7]; unconjugated, basic PBPK model, ref Yang et al. (2015)
  Urinary excretion: 0.060^f 1/h/kg BW^0.75
[7]; used in BPA PBPK model, ref Yang et al. (2015)
  EHR share: 10%
[8]; dissolved in ethanol, used for PCPs, ref Biedermann et al. 2010
  dermal absorption fraction: 60%
[8]; range over several studies, different study designs and solvents
  reported dermal absorption: 9.3% to 60
Liver [9]; read-out: Hepatic sulfation Km
  Km: 10.1 µM
Liver [9]
  Hepatic sulfation vmax: 149^n nmol/h/g liver
[10]
  fetal plasma concentration, times higher than corresponding maternal plasma: up to 7 times
Small intestine; read-out: Glucuronidation in enterocytes / intestinal glucuronidation Km, used in basic model, ref Trdan Lušin et al. (2012)
  Km: 58.4 µM
Small intestine; read-out: Glucuronidation in enterocytes Km range, ref Trdan Lušin et al. (2012), Mazur et al. (2010)
  Km: 58.4 to 80.1 µM
Small intestine; read-out: Intestinal glucuronidation Km ±SD, ref Mazur et al. (2010)
  Km: 80.1 µM
Small intestine; ref Mazur et al. (2010)
  Intestinal glucuronidation vmax ±SD: 29.2 ± 7.2 nmol/h/mg microsomal protein
Small intestine; ref Trdan Lušin et al. (2012), Mazur et al. (2010)
  Glucuronidation in enterocytes vmax range: 125–361^j nmol/h/g liver
Small intestine; ref Trdan Lušin et al. (2012)
  Glucuronidation in enterocytes vmax - used in basic model: 361^i nmol/h/g bw
  Intestinal glucuronidation vmax ±SD: 84.0 ± 6.0 nmol/h/mg microsomal protein
[11]; value for brain used
  PTS richly perfused tissue/serum: 2.8
[11]; value for muscle used
  PTS slowly perfused tissue/serum: 2.7
[12]; mean, ref Bayer 1996, Korenman 1973
  logPow: 3.36
[12]; ref Bautista-Toledo et al. 2005
  pKa: 10.4 and ~10.4
